Experimental data from patent publication US20230399289A1, “ITACONIC ACID DERIVATIVES” (Sitryx Therapeutics Limited, priority 2020, published 2023).

Tests used:
[1] = tested on: IL-1β cytokine output from THP-1 cells; assay: THP-1 AlphaLISA IL-1β cytokine assay; format: cell-based; conditions: Homo sapiens, THP-1, differentiated THP-1 cells, LPS 24 hr then Nigericin 1 hour
Experimental: (§1) Measuring Inhibitory Effects on IL-1β and IL-6 Cytokine Output from THP-1s
(§2) The cytokine inhibition profiles of compounds of formula (I) were determined in a differentiated THP-1 cell assay. All assays were performed in RPMI-1640 growth medium (Gibco), supplemented with 10% fetal bovine serum (FBS; Gibco), 1% penicillin-streptomycin and 1% sodium pyruvate unless specified otherwise. The IL-1β and IL-6 cytokine inhibition assays were each run in a background of differentiated THP-1 cells as described below. All reagents described were from Sigma-Aldrich unless specified otherwise. Compounds were prepared as 10 mM DMSO stocks.
(§3) THP-1 cells were expanded as a suspension up to 80% confluence in appropriate growth medium. Cells were harvested, suspended, and treated with an appropriate concentration of phorbol 12-myristate 13-acetate (PMA) over a 72 hr period (37° C./5% CO2).
(§4) Following 72 hrs of THP-1 cell incubation, cellular medium was removed and replaced with fresh growth media containing 1% of FBS. Working concentrations of compounds were prepared separately in 10% FBS treated growth medium and pre-incubated with the cells for 30 minutes (37° C./5% CO2). Following the 30 minute compound pre-incubation, THP-1s were treated with an appropriate concentration of LPS and the THP-1s were subsequently incubated for a 24 hr period (37° C./5% CO2). An appropriate final concentration of Nigericin was then dispensed into the THP-1 plates and incubated for 1 hour (37° C./5% CO2) before THP-1 supernatants were harvested and collected in separate polypropylene 96-well holding plates.
(§5) Reagents from each of the […] and IL-6 commercial kits (Perkin Elmer) were prepared and run according to the manufacturer's instructions. Subsequently, fluorescence signal detection in a microplate reader was measured (EnVision® Multilabel Reader, Perkin Elmer).
(§6) Percentage inhibition was calculated per cytokine by normalising the sample data to the high and low controls used within each plate (+/−LPS respectively). Percentage inhibition was then plotted against compound concentration and the 50% inhibitory concentration (IC50) was determined from the resultant concentration-response curve.

[2] = tested on: IL-6 cytokine output from THP-1 cells; assay: THP-1 AlphaLISA IL-6 cytokine assay; format: cell-based; conditions: Homo sapiens, THP-1, differentiated THP-1 cells, LPS 24 hr then Nigericin 1 hour
Experimental: as §1, §2, §3, §4, §5, §6

[3] = tested on: NRF2 (nuclear factor erythroid 2-related factor 2); assay: NRF2 +/−GSH activation assay (DiscoverX PathHunter NRF2 translocation kit, U2OS cells); format: cell-based; conditions: Homo sapiens; for Emax: U2OS, normalised to dimethyl fumarate high control; for EC50: U2OS PathHunter cells, 6 hours
[4] = Hepatocyte stability assay, human; format: in vitro ADME; conditions: cryopreserved hepatocytes, 10 μM compound, 0.5×10^6 cells/mL, 60 min, read-out: T½
Description: (§7) Defrosted cryo-preserved hepatocytes (viability>70%) may be used to determine the metabolic stability of a compound via calculation of intrinsic clearance (Clint; a measure of the removal of a compound from the liver in the absence of blood flow and cell binding). Clearance data are particularly important for in vitro work as they can be used in combination with in vivo data to predict the half-life and oral bioavailability of a drug.
(§8) The metabolic stability in hepatocytes assay involves a time-dependent reaction using both positive and negative controls. The cells were pre-incubated at 37° C. and spiked with test compound (and positive control); samples were taken at pre-determined time intervals and analysed to monitor the change in concentration of the initial drug compound over 60 minutes. A buffer incubation reaction (with no hepatocytes present) acted as a negative control and two cocktail solutions, containing compounds with known high and low clearance values (verapamil/7-hydroxycoumarin and propranolol/diltiazem), acted as positive controls. • 1. The assay was run with a cell concentration of 0.5×10^6 cells/mL in Leibovitz buffer. • 2. All compounds and controls were run in duplicate. • 3. Compound concentration was 10 μM. • 4. All compounds and controls were incubated with both cells and buffer to show turnover was due to hepatic metabolism. • 5. All wells on the incubation plate had 326.7 μL of either cells or buffer added. • 6. Prior to assay, cell and buffer-only incubation plates were preincubated for 10 mins at 37° C. • 7. The assay was initiated by adding compounds, 3.3 μL of 1 mM in 10% DMSO-90% Buffer; final DMSO concentration is 0.1%. • 8. Samples were taken at regular timepoints (0, 5, 10, 20, 40, 60 min) until 60 mins. • 9. Sample volume was 40 μL and was added to 160 μL of crash solvent (acetonitrile with internal standard) and stored on ice. • 10. At the end of the assay, the crash plates were centrifuged at 3500 rpm for 20 mins at 4° C. • 11. 80 μL of clear supernatant was removed and mixed with 80 μL of deionised water before being analysed by LC-MS/MS.
(§9) Raw LC-MS/MS data was exported to, and analysed in, Microsoft Excel for determination of intrinsic clearance. The percentage remaining of a compound was monitored using the peak area of the initial concentration as 100%. Intrinsic clearance and half-life values were calculated using a graph of the natural log of percentage remaining versus the time of reaction in minutes. Half-life (min) and intrinsic clearance (Clint in μL min^−1 10^−6 cells) values were calculated using the gradient of the graph (the elimination rate constant, k) and Equations 1 and 2.

[5] = tested on: hepatocytes; assay: Hepatocyte stability assay, human; format: in vitro ADME; conditions: 10 μM compound, 0.5×10^6 cells/mL, 60 min
Description: as §7, §8, §9

[6] = Hepatocyte stability assay, mouse; format: in vitro ADME; conditions: cryopreserved hepatocytes, 10 μM compound, 0.5×10^6 cells/mL, 60 min, read-out: T½
Description: as §7, §8, §9

[7] = tested on: hepatocytes; assay: Hepatocyte stability assay, mouse; format: in vitro ADME; conditions: 10 μM compound, 0.5×10^6 cells/mL, 60 min
Description: as §7, §8, §9

[8] = +GSH, 30 minute compound-GSH pre-incubation

| SMILES | IC50 [1] [µM] | IC50 [2] [µM] | Emax ([3]; +GSH) [%] | Emax ([3]; −GSH) [%] | EC50 [3, 8] [µM] | EC50 ([3]; −GSH) [µM] | half-life at 10 μM [4] [h] | CIint [5] [μL min^−1 10^−6 cells] | half-life at 10 μM [6] [h] | CIint [7] [μL min^−1 10^−6 cells] |
| --- | --- | --- | --- | --- | --- | --- | --- | --- | --- | --- |
| C=C(CC(=O)OC1(c2c(Cl)cccc2Cl)CCC1)C(=O)OCC(=O)O [Example 8, 2-((4-(1-(2,6-dichlorophenyl)cyclobutoxy)-2-methylene-4-oxobutanoyl)oxy)acetic acid] | 15.2 | 6 | 170 | 193 | 18.7 | 12.2 | 2.37 | 11 | 0.15 | 223 |
| C=C(CC(=O)OC1(c2cc(Cl)cc(Cl)c2)CCC1)C(=O)OCCC(=O)O [Example 13, 3-((4-(1-(3,5-dichlorophenyl)cyclobutoxy)-2-methylene-4-oxobutanoyl)oxy)propanoic acid] | 12.5 | 5.9 | 143 | 251 | 11.6 | 7.6 | 1.67 | 16 | < 0.05 | >460 |
| C=C(CC(=O)OC1(c2ccc(C(F)(F)F)cc2)CCC1)C(=O)OCCC(=O)O [Example 22, 3-((2-methylene-4-oxo-4-(1-(4-(trifluoromethyl)phenyl)cyclobutoxy)butanoyl)oxy)propanoic acid] | 10.3 | 11.2 | 183 | 225 | 22.3 | 14.9 | 2.6 | 9 | 0.2 | 128 |
| C=C(CC(=O)OC1(c2ccc(C(F)(F)F)cc2)CCC1)C(=O)OC1(CC(=O)O)COC1 [Example 33, 2-(3-((2-methylene-4-oxo-4-(1-(4-(trifluoromethyl)phenyl)cyclobutoxy)butanoyl)oxy)oxetan-3-yl)acetic acid] | 2.4 | 5.7 | 118 | 162 | 20.7 | 8.4 | 3.37 | 7 | 0.3 | 82 |
| C=C(CC(=O)OC1(c2ccc(SC(F)(F)F)cc2)CCC1)C(=O)OCC(=O)O [Example 34, 2-((2-methylene-4-oxo-4-(1-(4-((trifluoromethyl)thio)phenyl)cyclobutoxy)butanoyl)oxy)acetic acid] | 5.1 | 2.7 | 2.8 | 0 | > 100 | > 54.8 | 1.93 | 11 | 0.383 | 74 |
